Patent US5134137A, “Cephalosporin antibiotics” (The Upjohn Company, priority 1990, dated 1992)
In brackets after ≈: the same amount, converted by molar mass. Like-named read-outs stand apart in the source and are kept apart here.

Assays:
Streptococcus uberis = experiment: MIC, agar dilution, Streptococcus uberis; format: cell-based; conditions: Streptococcus uberis, read-out: MIC
How it was run: (§1)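 Each organism receives an inoculum of approx. 10^3–10^4 CFU, taken from a 5% CO2 BHI subculture standardised to 0.5 McFarland and diluted 1:20. It is spotted on Mueller-Hinton agar containing the compound, then incubated for 16–18 h at 37 °C with CO2.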

Pseudomonas aeruginosa = experiment: MIC, agar dilution, Pseudomonas aeruginosa; format: cell-based; conditions: Pseudomonas aeruginosa; strain ATCC27853; read-out: MIC
How it was run: as §1

Streptococcus agalactiae = experiment: MIC, agar dilution, Streptococcus agalactiae; format: cell-based; conditions: Streptococcus agalactiae, read-out: MIC
How it was run: as §1

[1] = system: Streptococcus dysgalactiae; experiment: MIC, agar dilution, Streptococcus dysgalactiae; format: cell-based; conditions: Streptococcus dysgalactiae; strain UC251; read-out: MIC
How it was run: as §1

Salmonella typhimurium [2] = experiment: Systemic infection model in mice, ED50, Salmonella typhimurium; format: in vivo; conditions: Salmonella enterica, 144 h, 50% survival six days post infection, per day, read-out: ED50 (95% confidence limits)
Protocol: Experimental Infections and Antitiotic Treatment (for ED50 in mice tests).
Mice are infected and treated with the test antibiotic compound according to procedures described previously [Yancey, Jr., R. J. et at. supra].
The test antibiotic compound is administered subcutaneously immediately following infection, then at 24 hours and 48 hours post infection. The medium effective dose (ED50) number is determined for all infections. The ED50 value is defined as the calculated concentration of the test antibiotic compound in mg. of compound per kilogram of mouse body weight per day at which 50% of the animals survived six days post infection.

Streptococcus bovis = experiment: MIC, agar dilution, Streptococcus bovis; format: cell-based; conditions: Streptococcus equinus; strain UC6281; read-out: MIC
How it was run: as §1

Corynebacterium pyogenes = experiment: MIC, agar dilution, Corynebacterium pyogenes; format: cell-based; conditions: strain 213-2; read-out: MIC
How it was run: as §1

Staphylococcus aureus = experiment: MIC, agar dilution, Staphylococcus aureus; format: cell-based; conditions: Staphylococcus aureus, read-out: MIC
How it was run: as §1

Escherichia coli = experiment: MIC, agar dilution, Escherichia coli; format: cell-based; conditions: Escherichia coli, read-out: MIC
How it was run: as §1

Salmonella typhimurium [3] = experiment: MIC, agar dilution, Salmonella typhimurium; format: cell-based; conditions: Salmonella enterica, read-out: MIC
How it was run: as §1

[4] = system: Bordetella bronchiseptica; experiment: MIC, agar dilution, Bordetella bronchiseptica; format: cell-based; conditions: Bordetella bronchiseptica, read-out: MIC
How it was run: as §1

Salmonella choleraesuis = experiment: MIC, agar dilution, Salmonella choleraesuis; format: cell-based; conditions: Salmonella enterica, read-out: MIC
How it was run: as §1

[5] = TYPHIMURIUM / UC6162, sc, strain UC6162, subcutaneous, 0, 24, 48 hours post infection
[6] = TYPHIMURIUM / UC6164, sc, strain UC6164, lactamase producing, subcutaneous, 0, 24, 48 hours post infection
[7] = TYPHIMURIUM / UC6162, strain UC6162
[8] = TYPHIMURIUM / UC6164, strain UC6164
[9] = CHOLERAESUIS / UC6073, strain UC6073
[10] = CHOLERAESUIS / UC6077, strain UC6077

SMILES	MIC (Streptococcus uberis; strain UC3946)	MIC (Streptococcus uberis; strain UC6159)	MIC (Pseudomonas aeruginosa)	MIC (Streptococcus agalactiae; strain UC3947)	MIC (Streptococcus agalactiae; strain UC6892)	MIC [1]	ED50 (Salmonella typhimurium [2]; [5])	ED50 (Salmonella typhimurium [2]; [6])	MIC (Streptococcus bovis)	MIC (Corynebacterium pyogenes)	MIC (Staphylococcus aureus; strain ATCC25923)	MIC (Staphylococcus aureus; strain UC6093)	MIC (Staphylococcus aureus; strain UC6097)	MIC (Staphylococcus aureus; strain UC6688)	MIC (Staphylococcus aureus; strain UC9201)	MIC (Escherichia coli; strain ATCC25922)	MIC (Escherichia coli; strain P75-1)	MIC (Escherichia coli; strain UC3784)	MIC (Escherichia coli; strain UC6720)	MIC (Salmonella typhimurium [3]; [7])	also measured
CO/N=C(\C(=O)N[C@@H]1C(=O)N2C(C(=O)O)=C(CS)CS[C@H]12)c1csc(N)n1 [Formula III compound, 3-mercaptomethyl-7β-[2-(2-amino-1,3-thiazol-4-yl)-(Z)-2-(methoxyimino)acetamido]ceph-3-em-4-carboxylic acid]	0.25 µg/mL	32 µg/mL	> 32 µg/mL	≤ 0.06 µg/mL	≤ 0.06 µg/mL	≤ 0.06 µg/mL	0.3 mg/kg	0.5 mg/kg	≤ 0.06 µg/mL	0.25 µg/mL	16 µg/mL	16 µg/mL	16 µg/mL	> 32 µg/mL	16 µg/mL	0.5 µg/mL	0.5 µg/mL	0.5 µg/mL	0.5 µg/mL	0.5 µg/mL	MIC (Salmonella typhimurium [3]; [8]): 0.5 µg/mL; MIC ([4]; strain UC3287): > 32 µg/mL; MIC ([4]; strain UC6313): > 32 µg/mL; MIC (Salmonella choleraesuis; [9]): 2 µg/mL; MIC (Salmonella choleraesuis; [10]): 1 µg/mL
CO/N=C(\C(=O)N[C@@H]1C(=O)N2C(C(=O)O)=C(CSC(=O)c3ccco3)CS[C@H]12)c1csc(N)n1 [ceftiofur, 7-[2-(amino-1,3-thiazol-4-yl)-2-(methoxyimino)acetamido]-3-[(fur-2-ylcarbonyl)thiomethyl]-3-cephem-4-carboxylic acid, reference compound]	≤ 0.06 µg/mL	0.25 µg/mL (≈ 0.477 µM)	32 µg/mL (≈ 61.1 µM)	≤ 0.06 µg/mL	≤ 0.06 µg/mL	≤ 0.06 µg/mL	0.4 mg/kg	0.5 mg/kg	≤ 0.06 µg/mL	< 0.06 µg/mL	0.25 µg/mL (≈ 0.477 µM)	1 µg/mL (≈ 1.91 µM)	0.5 µg/mL (≈ 0.955 µM)	32 µg/mL (≈ 61.1 µM)	1 µg/mL (≈ 1.91 µM)	0.13 µg/mL (≈ 0.248 µM)	0.13 µg/mL (≈ 0.248 µM)	0.13 µg/mL (≈ 0.248 µM)	0.13 µg/mL (≈ 0.248 µM)	0.25 µg/mL (≈ 0.477 µM)	MIC (Salmonella typhimurium [3]; [8]): 0.25 µg/mL (≈ 0.477 µM); MIC ([4]; strain UC3287): > 32 µg/mL; MIC ([4]; strain UC6313): > 32 µg/mL; MIC (Salmonella choleraesuis; [9]): 1 µg/mL (≈ 1.91 µM); MIC (Salmonella choleraesuis; [10]): 2 µg/mL (≈ 3.82 µM)
CO/N=C(\C(=O)N[C@@H]1C(=O)N2C(C(=O)O)=C(CO)CS[C@H]12)c1csc(N)n1 [desacetyl cefotoxime, 7-[2-(2-amino-1,3-thiazol-4-yl)-(syn)-2-methoxyiminoacetamido]-3-hydroxymethylceph-3-em-4-carboxylic acid, reference compound]	≤ 0.06 µg/mL	16 µg/mL (≈ 38.7 µM)	> 32 µg/mL	≤ 0.6 µg/mL	≤ 0.06 µg/mL	≤ 0.06 µg/mL	0.8 mg/kg	1 mg/kg	≤ 0.06 µg/mL	0.25 µg/mL (≈ 0.605 µM)	4 µg/mL (≈ 9.67 µM)	16 µg/mL (≈ 38.7 µM)	16 µg/mL (≈ 38.7 µM)	> 32 µg/mL	16 µg/mL (≈ 38.7 µM)	0.25 µg/mL (≈ 0.605 µM)	0.25 µg/mL (≈ 0.605 µM)	0.25 µg/mL (≈ 0.605 µM)	0.25 µg/mL (≈ 0.605 µM)	0.13 µg/mL (≈ 0.314 µM)	MIC (Salmonella typhimurium [3]; [8]): 0.13 µg/mL (≈ 0.314 µM); MIC ([4]; strain UC3287): > 32 µg/mL; MIC ([4]; strain UC6313): > 32 µg/mL; MIC (Salmonella choleraesuis; [9]): 0.5 µg/mL (≈ 1.21 µM); MIC (Salmonella choleraesuis; [10]): 1 µg/mL (≈ 2.42 µM)
